Structures can show the parent of a compound that is named as a salt.
What was measured:
[1] = system: HT29: human colon cancer cell line; test: Proliferation IC50 assay, oxic/hypoxic, HT29; type: cell-based; settings: for IC50: Homo sapiens, HT-29, 4 h exposure under aerobic conditions; for HCR (hypoxic cytotoxicity ratio) HT29: IC50(aerobic)/IC10(hypoxic); for HCR HT29: IC50(aerobic)/IC50(hypoxic)
[2] = system: SKOV3: human ovarian carcinoma cell line; test: Proliferation IC50 assay, oxic/hypoxic, SKOV3; type: cell-based; settings: for IC50: Homo sapiens, SK-OV-3, 4 h exposure under aerobic conditions; for HCR (hypoxic cytotoxicity ratio) SKOV3: IC50(aerobic)/IC10(hypoxic); for HCR SKOV3: IC50(aerobic)/IC50(hypoxic)

| SMILES | IC50 ([1]; Table 3) | HCR (hypoxic cytotoxicity ratio) HT29 ([1]; Table 3) | melting point | IC50 ([2]; Table 3) | HCR (hypoxic cytotoxicity ratio) SKOV3 ([2]; Table 3) | IC50 ([1]; Table 4) | HCR HT29 ([1]; Table 4) | IC50 ([2]; Table 4) | HCR SKOV3 ([2]; Table 4) |
| --- | --- | --- | --- | --- | --- | --- | --- | --- | --- |
| COc1ccc(/C=C/C(=O)N2CC(CCl)c3c2cc([N+](=O)[O-])c2cc(C(=O)NCCO)ccc32)cc1 (centres unmarked) [Compound 18, 1-(Chloromethyl)-N-(2-hydroxyethyl)-3-[(E)-4-methoxycinnamoyl]-5-nitro-1,2-dihydro-3H-benzo[e]indole7-carboxamide] | 4.4 µM | 4.4 | 240 to 241 °C | 4.8 µM | 4.7 |  |  |  |  |
| COc1cc2cc(C(=O)N3CC(CCl)c4c3cc([N+](=O)[O-])c3c([N+](=O)[O-])cccc43)[nH]c2c(OC)c1OC (centres unmarked) [Compound 1, 1-(Chloromethyl)-5,6-dinitro-3-(5,6,7-trimethoxyindol-2-carbonyl)-1,2-dihydro-3H-benzo[e]indole] | 18 µM | <1 | 278 to 279 °C | > 20 µM |  |  |  |  |  |
| CN(C)CCOc1ccc2[nH]c(C(=O)N3CC(CCl)c4c3cc(N)c3cc(S(N)(=O)=O)ccc43)cc2c1 (centres unmarked) [Compound 60, 5-Amino-1-(chloromethyl)-3-{5-[2-(dimethylamino)ethoxy]indol-2-carbonyl}-1,2-dihydro-3H-benzo[e]indole-7-sulfonamide] |  |  | 260 to 266 °C (dec.) |  |  | 0.035 µM | 1.8 | 0.023 µM | 1.4 |
| CN(C)CCOc1ccc2[nH]c(C(=O)N3CC(CCl)c4c3cc(N)c3cc(C#N)ccc43)cc2c1 (centres unmarked) [Compound 56, 5-Amino-1-(chloromethyl)-3-{5-[2-(dimethylamino)ethoxy]indol-2-carbonyl}-1,2-dihydro-3H-benzo[e]indole-7-carbonitrile] |  |  | 250 to 255 °C (dec.) |  |  | 0.017 µM | 2.0 | 0.013 µM | 1.1 |
| COc1cc2cc(C(=O)N3CC(CCl)c4c3cc([N+](=O)[O-])c3ccc(S(C)(=O)=O)cc43)[nH]c2c(OC)c1OC (centres unmarked) [Compound 46, 1-(Chloromethyl)-8-(methylsulfonyl)-5-nitro-3-(5,6,7-trimethoxyindol-2-carbonyl)-1,2-dihydro-3H-benzo[e]indole] | 14 µM | 2.5 | 265 °C | 11 µM | 4.2 |  |  |  |  |
| CC(=O)c1ccc2c3c(cc([N+](=O)[O-])c2c1)N(C(=O)c1cc2cc(OCCN(C)C)ccc2[nH]1)CC3CCl (centres unmarked) [Compound 12, 7-Acetyl-1-(chloromethyl)-3-{5-[2-(dimethylamino)ethoxy]indol-2-carbonyl}-5-nitro-1,2-dihydro-3H-benzo[e]indole] | 0.17 µM | 1.5 | > 350 °C | 0.64 µM | 4.0 |  |  |  |  |
| COc1cc2cc(C(=O)N3CC(CCl)c4c3cc(N)c3cc(S(C)(=O)=O)ccc43)[nH]c2c(OC)c1OC (centres unmarked) [Compound 57, 5-Amino-1-(chloromethyl)-7-(methylsulfonyl)-3-(5,6,7-trimethoxyindol-2-carbonyl)-1,2-dihydro-3H-benzo[e]indole] |  |  | 266 to 268 °C |  |  | 0.032 µM | 0.86 | 0.032 µM | 1.2 |
| CC(=O)c1ccc2c([N+](=O)[O-])cc3c(c2c1)C(CCl)CN3C(=O)c1cc2cc(OCCN(C)C)ccc2[nH]1 (centres unmarked) [Compound 41, 8-Acetyl-1-(chloromethyl)-3-{5-[2-(dimethylamino)ethoxy]indol-2-carbonyl}-5-nitro-1,2-dihydro-3H-benzo[e]indole] | 0.15 µM | 1.1 | 210 to 215 °C | 0.2 µM | 1.3 |  |  |  |  |
| CN(C)CCOc1ccc2[nH]c(C(=O)N3CC(CCl)c4c3cc(N)c3cc(S(C)(=O)=O)ccc43)cc2c1 (centres unmarked) [Compound 58, 5-Amino-1-(chloromethyl)-3-{5-[2-(dimethylamino)ethoxy]indol-2-carbonyl}-7-(methylsulfonyl)-1,2-dihydro-3H-benzo[e]indole] |  |  | 280 to 285 °C |  |  | 0.011 µM | 1.6 | 0.014 µM | 1.7 |
| CN(C)CCOc1ccc2[nH]c(C(=O)N3CC(CCl)c4c3cc([N+](=O)[O-])c3cc(N)ccc43)cc2c1 (centres unmarked) [Compound 10, 7-Amino-1-(chloromethyl)-3-{5-[2-(dimethylamino)ethoxy]indol-2-carbonyl}-5-nitro-1,2-dihydro-3H-benzo[e]indole] | 1.8 µM | 2.4 | > 300 °C | 2.5 µM | 2.0 |  |  |  |  |
| CC(=O)c1ccc2c3c(cc(N)c2c1)N(C(=O)c1cc2cc(OCCN(C)C)ccc2[nH]1)CC3CCl (centres unmarked) [Compound 53, 7-Acetyl-5-amino-1-(chloromethyl)-3-{5-[2-(dimethylamino)ethoxy]indol-2-carbonyl}-1,2-dihydro-3H-benzo[e]indole] |  |  | 220 to 224 °C (dec.) |  |  | 0.0076 µM | 1.5 | 0.011 µM | 1.4 |
| COc1cc2cc(C(=O)N3CC(CCl)c4c3cc([N+](=O)[O-])c3cc(C(N)=O)ccc43)[nH]c2c(OC)c1OC (centres unmarked) [Compound 15, 1-(Chloromethyl)-5-nitro-3-[5,6,7-trimethoxyindol-2-carbonyl]-1,2-dihydro-3H-benzo[e]indole-7-carboxamide] | 7.9 µM | 2.8 | 287 to 289 °C | 5.8 µM | 6.1 |  |  |  |  |
| CN(C)CCOc1ccc2[nH]c(C(=O)N3CC(CCl)c4c3cc(N)c3ccc(S(C)(=O)=O)cc43)cc2c1 (centres unmarked) [Compound 64, 5-Amino-1-(chloromethyl)-3-{5-[2-(dimethylamino)ethoxy]indol-2-carbonyl}-8-(methylsulfonyl)-1,2-dihydro-3H-benzo[e]indole] |  |  | 235 to 240 °C |  |  | 0.029 µM | 1.9 | 0.018 µM | 1.5 |
| COc1cc2cc(C(=O)N3CC(CCl)c4c3cc([N+](=O)[O-])c3cc(S(=O)(=O)NCCO)ccc43)[nH]c2c(OC)c1OC (centres unmarked) [Compound 33, 1-(Chloromethyl)-N-(2-hydroxyethyl)-5-nitro-3-(5,6,7-trimethoxyindol-2-carbonyl)-1,2-dihydro-3H-benzo[e]indole-7-sulfonamide] |  |  | 257 to 258 °C | 13 µM | 5.8 |  |  |  |  |
| COC(=O)c1ccc2c3c(cc(N)c2c1)N(C(=O)c1cc2cc(OCCN(C)C)ccc2[nH]1)CC3CCl (centres unmarked) [Compound 54, Methyl 5-amino-1-(chloromethyl)-3-{5-[2-(dimethylamino)ethoxy]indol-2-carbonyl}-1,2-dihydro-3H-benzo[e]indole-7-carboxylate] |  |  | 225 to 230 °C |  |  | 0.0086 µM | 1.7 | 0.0077 µM | 0.91 |
| COc1cc2cc(C(=O)N3CC(CCl)c4c3cc(N)c3ccc(S(C)(=O)=O)cc43)[nH]c2c(OC)c1OC (centres unmarked) [Compound 63, 5-Amino-1-(chloromethyl)-8-(methylsulfonyl)-3-(5,6,7-trimethoxyindol-2-carbonyl)-1,2-dihydro-3H-benzo[e]indole] |  |  | 165 to 170 °C |  |  | 0.025 µM | 1.0 | 0.019 µM | 1.4 |
| COc1cc2cc(C(=O)N3CC(CCl)c4c3cc([N+](=O)[O-])c3ccc(S(N)(=O)=O)cc43)[nH]c2c(OC)c1OC (centres unmarked) [Compound 48, 1-(Chloromethyl)-5-nitro-3-(5,6,7-trimethoxyindol-2-carbonyl)-1,2-dihydro-3H-benzo[e]indole-8-sulfonamide] | 24 µM | 1.9 | 264 to 266 °C (dec.) | 12 µM | 2.6 |  |  |  |  |
| COC(=O)c1ccc2c3c(cc([N+](=O)[O-])c2c1)N(C(=O)c1cc2cc(OCCN(C)C)ccc2[nH]1)CC3CCl (centres unmarked) (as salt: HCl) [Compound 14, Methyl 1-(chloromethyl)-3-{5-[2-(dimethylamino)ethoxy]indol-2-carbonyl}-5-nitro-1,2-dihydro-3H-benzo[e]indole-7-carboxylate] |  |  | > 300 °C |  |  |  |  |  |  |
| COc1cc2cc(C(=O)N3CC(CCl)c4c3cc([N+](=O)[O-])c3cc(C(=O)NCCO)ccc43)[nH]c2c(OC)c1OC (centres unmarked) [Compound 17, 1-(Chloromethyl)-N-(2-hydroxyethyl)-5-nitro-3-(5,6,7-trimethoxyindol-2-carbonyl)-1,2-dihydro-3H-benzo[e]-indole-7-carboxamide] | 5.7 µM | 1.7 | 244 to 245 °C |  |  |  |  |  |  |
| CCC(=O)NS(=O)(=O)c1ccc2c3c(cc([N+](=O)[O-])c2c1)N(C(=O)c1cc2cc(OCCN(C)C)ccc2[nH]1)CC3CCl (centres unmarked) |  |  | 221 to 225 °C |  |  |  |  |  |  |
| CN(C)CCOc1ccc2[nH]c(C(=O)N3CC(CCl)c4c3cc([N+](=O)[O-])c3cc(S(=O)(=O)N(C)C)ccc43)cc2c1 (centres unmarked) (as salt: HCl) [Compound 38, 1-(Chloromethyl)-3-{5-[2-(dimethylamino)ethoxy]indol-2-carbonyl}-N,N-dimethyl-5-nitro-1,2-dihydro-3H-benzo[e]indole-7-sulfonamide] |  |  | > 350 °C |  |  |  |  |  |  |
| CN(C)CCOc1ccc2[nH]c(C(=O)N3CC(CCl)c4c3cc([N+](=O)[O-])c3cc([N+](=O)[O-])ccc43)cc2c1 (centres unmarked) (as salt: HCl) [Compound 9, 1-(Chloromethyl)-3-{5-[2-(dimethylamino)ethoxy]indol-2-carbonyl}-5,7-dinitro-1,2-dihydro-3H-benzo[e]indole] |  |  | 263 to 264 °C |  |  |  |  |  |  |

Reference: US7718688B2, “Nitrobenzindoles and their use in cancer therapy” (Auckland Uniservices Limited, priority 2004, dated 2010)
